Assay results from patent publication US10906889B2, “Polycyclic inhibitors of cyclin-dependent kinase 7 (CDK7)” (Dana-Farber Cancer Institute, Inc., priority 2013, dated 2021).
Like-named read-outs stand apart in the source and are kept apart here.

Experiments:
Jurkat cells = assay: Cell proliferation (CellTiter-Glo, 72 hour), Jurkat; format: cell-based; details: Homo sapiens, blood cancer cell line
CDK7 = molecular target: T1, CDK7 (Homo sapiens, UniProt P50613); assay: Adapta kinase assay (Life Technologies), CDK7; format: biochemical
T1 construct: purchased Life Technologies (assay service)
T1 sequence (P50613 whole entry): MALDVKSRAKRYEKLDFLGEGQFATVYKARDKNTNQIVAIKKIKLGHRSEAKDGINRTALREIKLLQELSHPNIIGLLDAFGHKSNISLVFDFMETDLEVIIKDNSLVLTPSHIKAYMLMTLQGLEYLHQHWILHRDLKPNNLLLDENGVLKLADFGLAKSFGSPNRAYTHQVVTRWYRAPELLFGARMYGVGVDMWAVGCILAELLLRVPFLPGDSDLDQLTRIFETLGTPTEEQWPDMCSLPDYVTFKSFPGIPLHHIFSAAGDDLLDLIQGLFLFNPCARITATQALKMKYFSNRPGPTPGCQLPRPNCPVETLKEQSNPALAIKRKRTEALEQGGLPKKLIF
T1 sequence (P51946 whole entry partner): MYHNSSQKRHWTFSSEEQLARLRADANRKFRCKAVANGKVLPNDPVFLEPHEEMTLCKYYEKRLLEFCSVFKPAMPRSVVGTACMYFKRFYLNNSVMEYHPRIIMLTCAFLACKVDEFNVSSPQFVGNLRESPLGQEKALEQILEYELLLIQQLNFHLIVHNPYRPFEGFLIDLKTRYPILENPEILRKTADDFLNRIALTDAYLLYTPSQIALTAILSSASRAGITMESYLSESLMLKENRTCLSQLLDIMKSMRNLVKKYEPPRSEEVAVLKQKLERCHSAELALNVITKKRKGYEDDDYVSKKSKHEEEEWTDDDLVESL
T1 sequence (P51948 whole entry partner): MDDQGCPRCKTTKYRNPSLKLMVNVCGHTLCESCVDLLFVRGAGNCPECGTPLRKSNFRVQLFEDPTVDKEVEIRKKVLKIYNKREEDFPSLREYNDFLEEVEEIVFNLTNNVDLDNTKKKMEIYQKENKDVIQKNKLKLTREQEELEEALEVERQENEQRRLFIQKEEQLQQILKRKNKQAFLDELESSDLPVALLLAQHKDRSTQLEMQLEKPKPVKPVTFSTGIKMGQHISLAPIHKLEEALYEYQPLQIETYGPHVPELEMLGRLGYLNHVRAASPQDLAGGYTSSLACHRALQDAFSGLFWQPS

Hs822T = assay: Cell proliferation (CellTiter-Glo, 72 hour), Hs822T; format: cell-based; details: Ewing's sarcoma cell line, read-out: Hs822T inhibition of proliferation (IC50)
T47D = assay: Cell proliferation (CellTiter-Glo, 72 hour), T47D; format: cell-based; details: Homo sapiens, breast cancer cell line, read-out: T47D inhibition of proliferation (IC50)
MNNG-HOS Cl #5 = assay: Cell proliferation (CellTiter-Glo, 72 hour), MNNG-HOS Cl #5; format: cell-based; details: osteosarcoma cell line, read-out: MNNG-HOS Cl#5 inhibition of proliferation (IC50)
A673 = assay: Cell proliferation (CellTiter-Glo, 72 hour), A673; format: cell-based; details: Homo sapiens, Ewing's sarcoma cell line, read-out: A673 inhibition of proliferation (IC50)
MCF7 = assay: Cell proliferation (CellTiter-Glo, 72 hour), MCF7; format: cell-based; details: Homo sapiens, breast cancer cell line, read-out: MCF7 inhibition of proliferation (IC50)
RD-ES = assay: Cell proliferation (CellTiter-Glo, 72 hour), RD-ES; format: cell-based; details: Ewing's sarcoma cell line, read-out: RD-ES inhibition of proliferation (IC50)
RS4-11 = assay: Cell proliferation (CellTiter-Glo, 72 hour), RS4-11; format: cell-based; details: Homo sapiens, blood cancer cell line, read-out: RS4-11 inhibition of proliferation (IC50)
MDA-MB231 = assay: Cell proliferation (CellTiter-Glo, 72 hour), MDA-MB231; format: cell-based; details: Homo sapiens, MDA-MB-231, breast cancer cell line, read-out: MDA-MB231 inhibition of proliferation (IC50)
Hs863T = assay: Cell proliferation (CellTiter-Glo, 72 hour), Hs863T; format: cell-based; details: Ewing's sarcoma cell line, read-out: Hs863T inhibition of proliferation (IC50)
hTERT-HME1 = assay: Cell proliferation (CellTiter-Glo, 72 hour), hTERT-HME1; format: cell-based; details: breast cancer cell lines table, read-out: hTERT-HME1 inhibition of proliferation (IC50)
MCF10A = assay: Cell proliferation (CellTiter-Glo, 72 hour), MCF10A; format: cell-based; details: Homo sapiens, MCF-10A, breast cancer cell lines table, read-out: MCF10A inhibition of proliferation (IC50)
SKBR3 = assay: Cell proliferation (CellTiter-Glo, 72 hour), SKBR3; format: cell-based; details: Homo sapiens, SK-BR-3, breast cancer cell line, read-out: SKBR3 inhibition of proliferation (IC50)
SAOS = assay: Cell proliferation (CellTiter-Glo, 72 hour), SAOS; format: cell-based; details: osteosarcoma cell line, read-out: SAOS inhibition of proliferation (IC50)
MV4-11 = assay: Cell proliferation (CellTiter-Glo, 72 hour), MV4-11; format: cell-based; details: Homo sapiens, blood cancer cell line, read-out: MV4-11 inhibition of proliferation (IC50)
THP-1 = assay: Cell proliferation (CellTiter-Glo, 72 hour), THP-1; format: cell-based; details: Homo sapiens, blood cancer cell line, read-out: THP-1 inhibition of proliferation (IC50)
143B = assay: Cell proliferation (CellTiter-Glo, 72 hour), 143B; format: cell-based; details: Homo sapiens, osteosarcoma cell line, read-out: 143B inhibition of proliferation (IC50)
HL60 = assay: Cell proliferation (CellTiter-Glo, 72 hour), HL60; format: cell-based; details: Homo sapiens, HL-60, blood cancer cell line, read-out: HL60 inhibition of proliferation (IC50)
SK-ES-1 = assay: Cell proliferation (CellTiter-Glo, 72 hour), SK-ES-1; format: cell-based; details: Homo sapiens, SK-ES1, Ewing's sarcoma cell line, read-out: SK-ES-1 inhibition of proliferation (IC50)
MLK3 = molecular target: T2, MLK3 (Homo sapiens, UniProt Q16584); assay: LanthaScreen Eu kinase assay (Life Technologies), MLK3; format: binding; details: Table 2; read-out: MLK3 (calculated IC50)
T2 construct: purchased Life Technologies (assay service)
T2 sequence (Q16584 whole entry): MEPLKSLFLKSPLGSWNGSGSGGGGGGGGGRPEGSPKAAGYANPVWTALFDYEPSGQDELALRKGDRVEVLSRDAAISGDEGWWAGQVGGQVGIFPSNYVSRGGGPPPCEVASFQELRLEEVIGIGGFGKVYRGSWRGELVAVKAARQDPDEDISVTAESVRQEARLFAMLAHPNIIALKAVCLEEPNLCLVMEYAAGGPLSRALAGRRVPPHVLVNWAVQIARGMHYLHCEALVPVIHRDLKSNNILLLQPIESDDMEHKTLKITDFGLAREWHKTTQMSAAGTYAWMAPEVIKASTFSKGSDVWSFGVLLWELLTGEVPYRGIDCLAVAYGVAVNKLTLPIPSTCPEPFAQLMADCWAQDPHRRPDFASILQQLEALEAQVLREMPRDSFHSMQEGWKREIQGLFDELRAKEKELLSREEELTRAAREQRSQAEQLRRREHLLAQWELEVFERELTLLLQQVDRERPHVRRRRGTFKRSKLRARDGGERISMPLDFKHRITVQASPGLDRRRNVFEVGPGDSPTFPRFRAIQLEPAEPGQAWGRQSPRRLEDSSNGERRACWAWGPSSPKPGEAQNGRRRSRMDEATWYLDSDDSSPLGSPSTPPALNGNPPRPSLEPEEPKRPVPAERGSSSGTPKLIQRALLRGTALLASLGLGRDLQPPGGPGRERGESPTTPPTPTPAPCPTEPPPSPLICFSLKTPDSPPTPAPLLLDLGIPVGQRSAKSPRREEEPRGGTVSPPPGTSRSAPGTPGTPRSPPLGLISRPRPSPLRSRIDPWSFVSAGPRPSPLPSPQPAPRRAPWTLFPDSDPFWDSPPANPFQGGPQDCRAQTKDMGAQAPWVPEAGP

CDK5/p25 = CDK5/p25 (Homo sapiens, UniProt Q00535); assay: Z'-Lyte kinase assay (Life Technologies), CDK5/p25
CDK5/p25, sequence (Q00535 whole entry): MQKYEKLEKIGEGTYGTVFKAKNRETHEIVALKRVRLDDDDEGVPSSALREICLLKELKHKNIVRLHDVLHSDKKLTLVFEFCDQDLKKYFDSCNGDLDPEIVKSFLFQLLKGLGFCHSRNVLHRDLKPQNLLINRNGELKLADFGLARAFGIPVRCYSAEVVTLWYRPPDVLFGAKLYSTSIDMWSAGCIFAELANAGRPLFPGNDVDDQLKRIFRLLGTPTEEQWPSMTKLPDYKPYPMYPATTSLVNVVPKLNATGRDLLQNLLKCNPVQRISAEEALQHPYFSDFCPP
CDK5/p25, sequence (Q15078 99-307 partner limits assumed): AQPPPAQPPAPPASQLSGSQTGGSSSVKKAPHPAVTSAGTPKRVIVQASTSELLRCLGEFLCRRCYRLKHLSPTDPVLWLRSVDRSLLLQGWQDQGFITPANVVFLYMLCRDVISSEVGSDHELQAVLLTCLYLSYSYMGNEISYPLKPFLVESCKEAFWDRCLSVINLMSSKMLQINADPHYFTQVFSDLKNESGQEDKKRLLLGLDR
Method: Compounds of the invention were assayed for activity against a variety of different kinases at Life Technologies™ (Grand Island, N.Y.) using their commercially available Adapta® (for CDK7, CDK9/cyclin T1, and IRAK1 kinases), Z′-Lyte® (for CDK1, CDK2, CDK5/p25, CDK5/p35, JNK1 and JNK2 kinases), and LanthaScreen Eu® (for CDK8, CDK9/cyclin K and MLK3) kinase assay services. Test compounds were tested at 100 nM and 1 μM final concentrations in 1% DMSO against all kinases except CDK7. For CDK7, test compounds were tested at concentrations ranging from 10 μM to 0.514 nM in a series of 3-fold serial dilutions. […] The co-factors used for each kinase in the assays were as follows: CDK1: cyclin B; CDK2: cyclin A; CDK5: p25 or p35 as indicated; CDK7: cyclin H and MNAT1; CDK8: cyclin C; CDK9: cyclin K or cyclin T1 as indicated; IRAK1: Histone H3 (1-20) peptide; JNK1: none required; JNK2: none required; MLK3: none required.

[1] = Table 1C, co-factors cyclin H and MNAT1, read-out: CDK7 IC50
[2] = Table 2, co-factors cyclin H and MNAT1, read-out: CDK7 (calculated IC50)

`CN(C)C/C=C/C(=O)Nc1ccc(CN[C@H]2CCC[C@@H](Nc3ncc(Cl)c(-c4c[nH]c5ccccc45)n3)C2)cc1` [Compound 129, (E)-N-(4-(((1S,3R)-3-(5-chloro-4-(1H-indol-3-yl)pyrimidin-2-ylamino)cyclohexylamino)methyl)phenyl)-4-(dimethylamino)but-2-enamide] showed an IC50 (Jurkat cells) of less than 500 nM and an IC50 (CDK7; [1]) of less than 100 nM.

`C[Si](C)(C)C#CC(=O)Nc1ccc(C(=O)NC23CCCC(Nc4ncc(Cl)c(-c5c[nH]c6ccccc56)n4)(C2)C3)cc1` [Compound 130, N-(5-(5-chloro-4-(1H-indol-3-yl)pyrimidin-2-ylamino)bicyclo[3.1.1]heptan-1-yl)-4-(3-(trimethylsilyl)propiolamido)benzamide] showed an IC50 (Jurkat cells) of less than 500 nM and an IC50 (CDK7; [1]) of less than 100 nM.

`CN(C/C=C/C(=O)Nc1ccc(C(=O)N[C@H]2CCC[C@@H](Nc3ncc(Cl)c(-c4c[nH]c5ccccc45)n3)C2)cc1)CC(=O)O` [Compound 131, 2-(((E)-4-(4-((1S,3R)-3-(5-chloro-4-(1H-indol-3-yl)pyrimidin-2-ylamino)cyclohexylcarbamoyl)phenylamino)-4-oxobut-2-enyl)(methyl)amino)acetic acid] was tested, and the IC50 (Jurkat cells) was less than 500 nM and the IC50 (CDK7; [1]) was less than 100 nM.

For `C=CC(=O)Nc1ccc(C(=O)N[C@H]2CCC[C@@H](Nc3ncc(Cl)c(-c4c[nH]c5ccccc45)n3)C2)c(N2CCOCC2)c1` [Compound 133, 4-acrylamido-N-((1S,3R)-3-(5-chloro-4-(1H-indol-3-yl)pyrimidin-2-ylamino)cyclohexyl)-2-morpholinobenzamide], the IC50 (Jurkat cells) was less than 500 nM and the IC50 (CDK7; [1]) was 100 to 1000 nM.

With `C=CC(=O)Nc1cccc(C(=O)N[C@H]2CC[C@H](Nc3ncc(Cl)c(-c4c[nH]c5ccccc45)n3)CC2)c1` [Compound 135, 3-acrylamido-N-((trans)-4-(5-chloro-4-(1H-indol-3-yl)pyrimidin-2-ylamino)cyclohexyl)benzamide] the IC50 (Jurkat cells) was less than 500 nM and the IC50 (CDK7; [1]) was less than 100 nM.

In the case of `C=CC(=O)Nc1ccc(C(=O)N[C@H]2CCC[C@@H](Nc3ncc(F)c(-c4c[nH]c5ccccc45)n3)C2)cc1` [Compound 137, 4-acrylamido-N-((1S,3R)-3-(5-fluoro-4-(1H-indol-3-yl)pyrimidin-2-ylamino)cyclohexyl)benzamide], the IC50 (Jurkat cells) is reported as less than 500 nM and the IC50 (CDK7; [1]) is reported as 100 to 1000 nM.

For `C=CC(=O)Nc1ccc(C(=O)N[C@H]2CCC[C@@H](Nc3ncc(Cl)c(-c4cnn5ccccc45)n3)C2)cc1` [Compound 138, 4-acrylamido-N-((1S,3R)-3-(5-chloro-4-(pyrazolo[1,5-a]pyridin-3-yl)pyrimidin-2-ylamino)cyclohexyl)benzamide], the IC50 (Jurkat cells) was less than 500 nM and the IC50 (CDK7; [1]) was less than 100 nM.

In the case of `CN(C)C/C=C/C(=O)Nc1ccc(C(=O)N[C@H]2C[C@@H](Nc3ncc(Cl)c(-c4c[nH]c5ccccc45)n3)CC(F)(F)C2)cc1` [Compound 139], the IC50 (Jurkat cells) is reported as 500 to 5000 nM and the IC50 (CDK7; [1]) is reported as greater than 1000 nM.

`Cc1nc(C)c(-c2nc(NC3CCCC(NC(=O)c4ccc(NC(=O)/C=C/CN(C)C)cc4)C3)ncc2Cl)s1` (stereo not shown) [Compound 141] showed an IC50 (Jurkat cells) of less than 500 nM and an IC50 (CDK7; [1]) of less than 100 nM.

`C=CC(=O)Nc1ccc(C(=O)NC2CCCC(Nc3ncc(Cl)c(-c4sc(C)nc4C)n3)C2)cc1` (stereo not shown) [Compound 142] gave an IC50 (Jurkat cells) of less than 500 nM and an IC50 (CDK7; [1]) of 100 to 1000 nM.

In the case of `Cc1noc(C)c1-c1nc(N[C@@H]2CCC[C@H](NC(=O)c3ccc(NC(=O)/C=C/CN(C)C)cc3)C2)ncc1Cl` [Compound 144], the IC50 (Jurkat cells) is reported as less than 500 nM and the IC50 (CDK7; [1]) is reported as 100 to 1000 nM.

Compound `C=CC(=O)Nc1ccc(C(=O)N[C@H]2CCC[C@@H](Nc3ncc(Cl)c(-c4c(C)noc4C)n3)C2)cc1` [Compound 145] has an IC50 (Jurkat cells) of less than 500 nM and an IC50 (CDK7; [1]) of less than 1000 nM.

`C=CC(=O)Nc1ccc(C(=O)N[C@H]2CCC[C@@H](Nc3ncc(C4CC4)c(-c4c[nH]c5ccccc45)n3)C2)cc1` [Compound 146] gave an IC50 (Jurkat cells) of 500 to 5000 nM and an IC50 (CDK7; [1]) of 100 to 1000 nM.

With `C=CC(=O)Nc1ccc(C(=O)N[C@H]2CC[C@@H](Nc3ncc(Cl)c(-c4c[nH]c5ccccc45)n3)CC2)cc1` [Compound 147] the IC50 (Jurkat cells) was less than 500 nM and the IC50 (CDK7; [1]) was less than 1000 nM.

Work on `C=CC(=O)Nc1ccc(C(=O)N[C@H]2CCC[C@@H](Nc3ncc(Cl)c(-c4cn(C)c5ccccc45)n3)C2)cc1` [Compound 152] yielded an IC50 (Jurkat cells) of less than 500 nM and an IC50 (CDK7; [1]) of 100 to 1000 nM.

For `CN1CC[C@H](c2c(O)cc(O)c3c(=O)cc(-c4ccccc4Cl)oc23)[C@H](O)C1` [Flavopiridol, flavopiridol, reference compound], the IC50 (Hs822T) was greater than 5000 nM, the IC50 (T47D) was greater than 5000 nM and the IC50 (MNNG-HOS Cl #5) was 500 to 5000 nM. It also gave an IC50 (A673) of less than 500 nM, an IC50 (MCF7) of 500 to 5000 nM and an IC50 (RD-ES) of less than 500 nM. For the same compound, the IC50 (RS4-11) was less than 500 nM, the IC50 (MDA-MB231) was less than 500 nM and the IC50 (Hs863T) was greater than 5000 nM. The IC50 (hTERT-HME1) was less than 500 nM, the IC50 (MCF10A) was less than 500 nM and the IC50 (SKBR3) was less than 500 nM. The IC50 (SAOS) was less than 500 nM, the IC50 (MV4-11) was less than 500 nM and the IC50 (THP-1) was less than 500 nM. It also gave an IC50 (143B) of 500 to 5000 nM, an IC50 (HL60) of less than 500 nM and an IC50 (SK-ES-1) of less than 500 nM.

`CC(C)[C@]12O[C@H]1[C@@H]1O[C@]13[C@]1(O[C@H]1C[C@H]1C4=C(CC[C@@]13C)C(=O)OC4)[C@@H]2O` [Triptolide, triptolide, reference compound] showed an IC50 (Hs822T) of 500 to 5000 nM, an IC50 (T47D) greater than 5000 nM and an IC50 (MNNG-HOS Cl #5) of less than 500 nM. It also gave an IC50 (A673) of less than 500 nM, an IC50 (MCF7) of less than 500 nM and an IC50 (RD-ES) of less than 500 nM. It also gave an IC50 (RS4-11) of less than 500 nM, an IC50 (MDA-MB231) of less than 500 nM and an IC50 (Hs863T) greater than 5000 nM. It also gave an IC50 (hTERT-HME1) of less than 500 nM, an IC50 (MCF10A) of less than 500 nM and an IC50 (SKBR3) of less than 500 nM. The IC50 (SAOS) was less than 500 nM, the IC50 (MV4-11) was less than 500 nM and the IC50 (THP-1) was less than 500 nM. For the same compound, the IC50 (143B) was less than 500 nM, the IC50 (HL60) was less than 500 nM and the IC50 (SK-ES-1) was less than 500 nM.

`CN(C)C/C=C/C(=O)Nc1ccc(C(=O)N[C@@H]2CCC[C@H](Nc3ncc(Cl)c(-c4c[nH]c5ccccc45)n3)C2)cc1` [compound 101] was tested, and the IC50 (MLK3) was greater than 1000 nM, the IC50 (CDK5/p25) was greater than 1000 nM and the IC50 (Jurkat cells) was 500 to 5000 nM. The IC50 (CDK7; [1]) was 100 to 1000 nM and the IC50 (CDK7; [2]) was 100 to 1000 nM.

`CN(C)C/C=C/C(=O)Nc1ccc(C(=O)N[C@@H]2CCC[C@@H](Nc3ncc(Cl)c(-c4c[nH]c5ccccc45)n3)C2)cc1` [compound 104] showed an IC50 (MLK3) greater than 1000 nM, an IC50 (CDK5/p25) greater than 1000 nM and an IC50 (Jurkat cells) of less than 500 nM. The IC50 (CDK7; [1]) was less than 100 nM and the IC50 (CDK7; [2]) was less than 100 nM.

Work on `CN(C)C/C=C/C(=O)Nc1ccc(C(=O)NC2CCCC(Nc3ncc(Cl)c(-c4c[nH]c5ccccc45)n3)C2)c(F)c1` (stereo not shown) [compound 125] yielded an IC50 (Jurkat cells) of less than 500 nM and an IC50 (CDK7; [1]) of less than 100 nM.

With `CN(C)C/C=C/C(=O)Nc1ccc(C(=O)NC2(C)CCCC(Nc3ncc(Cl)c(-c4c[nH]c5ccccc45)n3)C2)cc1` (stereo not shown) [compound 128] the IC50 (Jurkat cells) was less than 500 nM and the IC50 (CDK7; [1]) was less than 100 nM.

Compound `CN(C)C/C=C/C(=O)Nc1cccc(C(=O)NC2CCC(Nc3ncc(Cl)c(-c4c[nH]c5ccccc45)n3)CC2)c1` (stereo not shown) [compound 140] has an IC50 (Jurkat cells) of less than 500 nM and an IC50 (CDK7; [1]) of less than 100 nM.
